Test results reported in PubChem BioAssay (NCI).
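Grown in 96-well plates, cells were treated for 48 hours with each compound at five concentrations. Insufficient inhibition: endpoint recorded as highest concentration tested. TGI is the concentration that stops growth completely.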

Tests used:
Assay in all cases: inhibition of tumour cell growth, NCI panel, 48 h
CAKI-1 renal = system: CAKI-1 renal
SK-MEL-5 melanoma = system: SK-MEL-5 melanoma
HOP-62 NSCLC = system: HOP-62 NSCLC
SN12C renal = system: SN12C renal
MDA-MB-231 breast = system: MDA-MB-231 breast
MALME-3M melanoma = system: MALME-3M melanoma
SF-539 CNS = system: SF-539 CNS
OVCAR-4 ovarian = system: OVCAR-4 ovarian
A498 renal = system: A498 renal
786-0 renal = system: 786-0 renal
ACHN renal = system: ACHN renal
HL-60(TB) leukemia = system: HL-60(TB) leukemia
PC-3 prostate = system: PC-3 prostate
MCF7 breast = system: MCF7 breast
K-562 leukemia = system: K-562 leukemia
OVCAR-8 ovarian = system: OVCAR-8 ovarian
RPMI-8226 leukemia = system: RPMI-8226 leukemia
UO-31 renal = system: UO-31 renal
OVCAR-5 ovarian = system: OVCAR-5 ovarian
HCT-116 colon = system: HCT-116 colon
NCI-H226 lung = system: NCI-H226 lung
HOP-92 NSCLC = system: HOP-92 NSCLC
U251 CNS = system: U251 CNS
SK-OV-3 ovarian = system: SK-OV-3 ovarian
SF-268 CNS = system: SF-268 CNS
A549 NSCLC = system: A549 NSCLC
NCI-H522 lung = system: NCI-H522 lung
DU-145 prostate = system: DU-145 prostate
KM12 colon = system: KM12 colon
HT29 colon = system: HT29 colon
SR leukemia = system: SR leukemia
M14 melanoma = system: M14 melanoma
NCI-H23 lung = system: NCI-H23 lung
NCI/ADR-RES ovarian = system: NCI/ADR-RES ovarian
SK-MEL-2 melanoma = system: SK-MEL-2 melanoma
MDA-MB-435 = system: MDA-MB-435
TK-10 renal = system: TK-10 renal
MOLT-4 leukemia = system: MOLT-4 leukemia
COLO 205 colon = system: COLO 205 colon
SK-MEL-28 melanoma = system: SK-MEL-28 melanoma
IGROV1 ovarian = system: IGROV1 ovarian
SW-620 colon = system: SW-620 colon
MDA-N = system: MDA-N
OVCAR-3 ovarian = system: OVCAR-3 ovarian
UACC-62 melanoma = system: UACC-62 melanoma
EKVX NSCLC = system: EKVX NSCLC
HS 578T breast = system: HS 578T breast
LOX IMVI melanoma = system: LOX IMVI melanoma
SF-295 CNS = system: SF-295 CNS
NCI-H460 lung = system: NCI-H460 lung
BT-549 breast = system: BT-549 breast
HCT-15 colon = system: HCT-15 colon
T-47D breast = system: T-47D breast
SNB-19 CNS = system: SNB-19 CNS
UACC-257 melanoma = system: UACC-257 melanoma
SNB-75 CNS = system: SNB-75 CNS
HCC-2998 colon = system: HCC-2998 colon
CCRF-CEM leukemia = system: CCRF-CEM leukemia
RXF 393 renal = system: RXF 393 renal

Measured: TGI

N#CC(C#N)=CNCCN1CCN(C=C(C#N)C#N)CC1
not listed: SNB-75 CNS | HCC-2998 colon | CCRF-CEM leukemia | RXF 393 renal
> 100 µM: all other assays above

O=C(CN1CCCC1=O)CS(=O)(=O)c1ccccc1
not listed: CAKI-1 renal | SN12C renal | MDA-MB-231 breast | OVCAR-4 ovarian | A498 renal | HOP-92 NSCLC | SK-OV-3 ovarian | HCT-15 colon | T-47D breast
> 100 µM: all other assays above
